Reference: ChEMBL document CHEMBL1145147, “Cytotoxic neolignans: an SAR study” (Bioorg Med Chem Lett, 2005)

Test system: HepG2
Test: Cytotoxicity of compound against human liver tumor cell line (Hep-G2) was determined
Type: functional, cell-based

## C/C=C/c1ccc(O)c(-c2cc(/C=C/C)ccc2O)c1
  IC50: 38 µM

## C=CCc1cc(O)c(O)c(-c2cc(CC=C)cc(O)c2O)c1
  IC50: 104 µM

## C=CCc1cccc(-c2cccc(CC=C)c2O)c1O
  IC50: 42.1 µM

## C=CCc1cc(OC)c(O)c(-c2cc(CC=C)cc(OC)c2O)c1
  IC50: 117 µM

## C=CCc1ccc(OC)c(-c2cc(CC=C)ccc2OC)c1
  IC50: > 200 µM

## Oc1ccccc1-c1ccccc1O
  IC50: > 200 µM

## CCCc1ccc(O)c(-c2cc(CCC)ccc2O)c1
  IC50: 23.4 µM

## CCCc1ccc(O)c(-c2ccc(O)c(CCC)c2)c1
  IC50: 13.1 µM

## C=CCc1ccc(O)cc1 [CHAVICOL]
  IC50: > 200 µM

## C=CCc1ccc(O)c(-c2ccc(O)c(CC=C)c2)c1 [HONOKIOL]
  IC50: 16.5 µM

## C=CCc1ccc(Oc2cc(CC=C)ccc2O)cc1 [ISOMAGNOLOL]
  IC50: 51.8 µM

## C=CCc1ccc(O)c(-c2cc(CC=C)ccc2O)c1 [MAGNOLOL]
  IC50: 32 µM
